Source: PubChem BioAssay AID248 (DTP/NCI, 2004)
“And” between values parts separate entries of the source, which are not always exact repeats. Equal entries are not always repeated. Inconclusive results and toxic doses are left out.

Tested on: L1210 leukemia ip in BDF1 mice, survival T/C
Assay: NCI In Vivo Anticancer Drug Screen. Data for tumor model L1210 Leukemia (intraperitoneal) in B6D2F1 (BDF1) mice
Details: endpoint: mean survival time, higher = longer survival
How it was run: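 Ratio derived from survival: compound-dosed mice over vehicle-dosed mice, all bearing a transplantable tumor.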

[1] = dose: 100.0 mg/kg/injection, schedule: Q01DX009 (ip), vehicle: saline
[2] = dose: 6.25 mg/kg/injection, schedule: Q01DX009 (ip), vehicle: saline
[3] = dose: 12.5 mg/kg/injection, schedule: Q01DX009 (ip), vehicle: saline
[4] = dose: 100.0 mg/kg/injection, schedule: Q01DX009 (ip), vehicle: saline with Tween-80
[5] = dose: 200.0 mg/kg/injection, schedule: Q01DX009 (ip), vehicle: saline with Tween-80
[6] = dose: 100.0 mg/kg/injection, schedule: Q01DX001 (ip), vehicle: carboxymethylcellulose (CMC)
[7] = dose: 200.0 mg/kg/injection, schedule: Q01DX001 (ip), vehicle: carboxymethylcellulose (CMC)
[8] = dose: 400.0 mg/kg/injection, schedule: Q01DX001 (ip), vehicle: carboxymethylcellulose (CMC)
[9] = dose: 5.0 mg/kg/injection, schedule: Q01DX001 (ip), vehicle: saline
[10] = dose: 10.0 mg/kg/injection, schedule: Q01DX001 (ip), vehicle: saline
[11] = dose: 20.0 mg/kg/injection, schedule: Q01DX001 (ip), vehicle: saline
[12] = dose: 100.0 mg/kg/injection, schedule: Q04DX002 (ip), vehicle: Klucel (hydroxypropylcellulose) (HPC)
[13] = dose: 200.0 mg/kg/injection, schedule: Q04DX002 (ip), vehicle: Klucel (hydroxypropylcellulose) (HPC)
[14] = dose: 400.0 mg/kg/injection, schedule: Q04DX002 (ip), vehicle: Klucel (hydroxypropylcellulose) (HPC)
[15] = dose: 100.0 mg/kg/injection, schedule: Q01DX001 (ip), vehicle: saline
[16] = dose: 200.0 mg/kg/injection, schedule: Q01DX001 (ip), vehicle: saline
[17] = dose: 400.0 mg/kg/injection, schedule: Q01DX001 (ip), vehicle: saline
[18] = dose: 50.0 mg/kg/injection, schedule: Q01DX009 (ip), vehicle: saline with Tween-80

For `CCOC(=O)/C=C(\C)Nc1ccc(NC(C)=O)cc1`, the T/C (dose: 50.0 mg/kg/injection, schedule: Q01DX009 (ip), vehicle: water) was 107 % of control, the T/C (dose: 100.0 mg/kg/injection, schedule: Q01DX009 (ip), vehicle: water) was 121 % of control and the T/C (dose: 100.0 mg/kg/injection, schedule: Q04DX003 (ip), vehicle: water) was 96 % of control. The T/C (dose: 200.0 mg/kg/injection, schedule: Q01DX009 (ip), vehicle: water) was 98 % of control, the T/C (dose: 200.0 mg/kg/injection, schedule: Q04DX003 (ip), vehicle: water) was 96 % of control and the T/C (dose: 400.0 mg/kg/injection, schedule: Q01DX009 (ip), vehicle: water) was 100 % of control. The T/C (dose: 400.0 mg/kg/injection, schedule: Q04DX003 (ip), vehicle: water) was 101 % of control.
In the case of `CN(C)C(=S)Nc1ccccc1`, the T/C [1] is reported as 114 % of control, the T/C (dose: 130.0 mg/kg/injection, schedule: Q01DX009 (ip), vehicle: Klucel (hydroxypropylcellulose) (HPC)) is reported as 98 % of control and the T/C (dose: 200.0 mg/kg/injection, schedule: Q01DX009 (ip), vehicle: Klucel (hydroxypropylcellulose) (HPC)) is reported as 103 % of control.
`COC1OCC(O)C(NC(=O)N(C)N=O)C1O` (stereo not drawn) was tested, and the T/C [2] was 117 % of control, the T/C [3] was 118 % of control and the T/C (dose: 16.5 mg/kg/injection, schedule: Q04DX003 (ip), vehicle: saline) was 108 % of control. For the same molecule, the T/C (dose: 25.0 mg/kg/injection, schedule: Q01DX009 (ip), vehicle: saline) was 150 % of control and 154 % of control, the T/C (dose: 27.3 mg/kg/injection, schedule: Q04DX003 (ip), vehicle: saline) was 112 % of control and the T/C (dose: 33.0 mg/kg/injection, schedule: Q04DX003 (ip), vehicle: saline) was 118 % of control. For the same molecule, the T/C (dose: 37.5 mg/kg/injection, schedule: Q01DX009 (ip), vehicle: citric acid) was 152 % of control, the T/C (dose: 75.0 mg/kg/injection, schedule: Q01DX009 (ip), vehicle: citric acid) was 185 % of control and the T/C [1] was 177 % of control and 224 % of control. For the same molecule, the T/C (dose: 150.0 mg/kg/injection, schedule: Q04DX003 (ip), vehicle: saline) was 167 % of control and the T/C (dose: 200.0 mg/kg/injection, schedule: Q01DX009 (ip), vehicle: saline) was 92 % of control.
For `CC(C)CC(CC(C)C)NC(C)COC(=O)C(c1ccccc1)c1ccccc1` (stereo not drawn), the T/C (dose: 75.0 mg/kg/injection, schedule: Q01DX001 (ip), vehicle: saline) was 98 % of control, the T/C (dose: 150.0 mg/kg/injection, schedule: Q01DX001 (ip), vehicle: saline) was 102 % of control and the T/C (dose: 300.0 mg/kg/injection, schedule: Q01DX001 (ip), vehicle: saline) was 100 % of control.
With `C(=N\n1cnnc1)/c1ccccc1/C=N/n1cnnc1` the T/C [4] was 116 % of control, the T/C (dose: 100.0 mg/kg/injection, schedule: Q04DX003 (ip), vehicle: saline with Tween-80) was 103 % of control and the T/C [5] was 96 % of control. For the same molecule, the T/C (dose: 200.0 mg/kg/injection, schedule: Q04DX003 (ip), vehicle: saline with Tween-80) was 100 % of control, the T/C (dose: 400.0 mg/kg/injection, schedule: Q01DX009 (ip), vehicle: saline with Tween-80) was 89 % of control and the T/C (dose: 400.0 mg/kg/injection, schedule: Q04DX003 (ip), vehicle: saline with Tween-80) was 89 % of control.
For `O=[N+]([O-])c1ccc(O)c(C=Nc2cnc3ccccc3c2)c1`, the T/C [6] was 88 % of control, the T/C [7] was 93 % of control and the T/C [8] was 90 % of control.
In the case of `O=CN(O)CC(=O)O.[Ni]`, the T/C [2] is reported as 105 % of control and the T/C [3] is reported as 109 % of control.
For `CC1CN1c1nc(N2CC2C)nc(N2CC2C)n1` (stereo not drawn), the T/C (dose: 1.56 mg/kg/injection, schedule: Q01DX009 (ip), vehicle: saline) was 97 % of control, the T/C (dose: 3.13 mg/kg/injection, schedule: Q01DX009 (ip), vehicle: saline) was 95 % of control and the T/C [9] was 100 % of control. For the same molecule, the T/C [2] was 92 % of control, the T/C [10] was 109 % of control and the T/C [3] was 87 % of control. The T/C [11] was 109 % of control.
With `Cc1cc(O)c([N+](=O)[O-])c(=O)o1` (tested in a mixture with another compound) the T/C [12] was 108 % of control, the T/C [13] was 97 % of control and the T/C [14] was 87 % of control.
With `O=C1CCCCC(=O)CCCC1` the T/C [15] was 102 % of control, the T/C [16] was 100 % of control and the T/C [17] was 105 % of control.
`N/N=C(\c1ccccc1)c1ccc(Cl)cc1` was tested, and the T/C [6] was 96 % of control, the T/C [7] was 87 % of control and the T/C [8] was 95 % of control.
`COc1ccc(N=CC2CCCCC2=O)c([N+](=O)[O-])c1` (stereo not drawn) was tested, and the T/C [15] was 106 % of control, the T/C [16] was 95 % of control and the T/C [17] was 93 % of control.
With `C[C@]12CCC(=O)C[C@H]1CC[C@@H]1[C@@H]2CC[C@@]2(C)[C@H]1CC[C@]2(C)O` the T/C (dose: 50.0 mg/kg/injection, schedule: Q01DX Z (sc), vehicle: steriod suspending solution) was 98 % of control, the T/C (dose: 100.0 mg/kg/injection, schedule: Q01DX Z (sc), vehicle: steriod suspending solution) was 98 % of control and the T/C (dose: 200.0 mg/kg/injection, schedule: Q01DX Z (sc), vehicle: steriod suspending solution) was 101 % of control. The T/C (dose: 400.0 mg/kg/injection, schedule: Q01DX Z (sc), vehicle: steriod suspending solution) was 98 % of control.
`CCOC(=O)C1CC2CCC1CC2` (stereo not drawn) was tested, and the T/C (dose: 25.0 mg/kg/injection, schedule: Q01DX005 (ip), vehicle: saline with Tween-80) was 92 % of control, the T/C (dose: 25.0 mg/kg/injection, schedule: Q01DX009 (ip), vehicle: saline with Tween-80) was 102 % of control and the T/C (dose: 25.0 mg/kg/injection, schedule: Q04DX002 (ip), vehicle: saline with Tween-80) was 106 % of control. The T/C (dose: 50.0 mg/kg/injection, schedule: Q01DX005 (ip), vehicle: saline with Tween-80) was 92 % of control, the T/C [18] was 94 % of control and the T/C (dose: 50.0 mg/kg/injection, schedule: Q04DX002 (ip), vehicle: saline with Tween-80) was 94 % of control. The T/C (dose: 100.0 mg/kg/injection, schedule: Q01DX005 (ip), vehicle: saline with Tween-80) was 89 % of control, the T/C [4] was 109 % of control and the T/C (dose: 100.0 mg/kg/injection, schedule: Q04DX002 (ip), vehicle: saline with Tween-80) was 97 % of control and 103 % of control.
`COC(=O)C1(C)CCCC2(C)C1CCC13CCC(C)(CCC21)C3O` (stereo not drawn) was tested, and the T/C [12] was 103 % of control, the T/C [13] was 92 % of control and the T/C [14] was 92 % of control.
With `CCCCCCc1ccc2c(c1)CC(CCCC)C2` (stereo not drawn) the T/C (dose: 50.0 mg/kg/injection, schedule: Q01DX001 (ip), vehicle: saline) was 101 % of control, the T/C [15] was 104 % of control and the T/C [16] was 98 % of control. The T/C [17] was 101 % of control.
In the case of `COc1ccc(C(=O)N/N=C/c2cccc(OC)c2OC)cc1`, the T/C (dose: 45.0 mg/kg/injection, schedule: Q01DX009 (ip), vehicle: saline) is reported as 98 % of control, the T/C (dose: 65.0 mg/kg/injection, schedule: Q01DX009 (ip), vehicle: saline) is reported as 98 % of control and the T/C (dose: 85.0 mg/kg/injection, schedule: Q04DX003 (ip), vehicle: saline) is reported as 93 % of control. For the same molecule, the T/C [1] was 102 % of control, the T/C [12] was 104 % of control and 105 % of control and the T/C (dose: 130.0 mg/kg/injection, schedule: Q04DX003 (ip), vehicle: saline) was 93 % of control. For the same molecule, the T/C (dose: 150.0 mg/kg/injection, schedule: Q01DX009 (ip), vehicle: saline) was 95 % of control, the T/C (dose: 175.0 mg/kg/injection, schedule: Q01DX001 (ip), vehicle: saline) was 104 % of control and the T/C (dose: 175.0 mg/kg/injection, schedule: Q04DX002 (ip), vehicle: saline) was 91 % of control. For the same molecule, the T/C [13] was 101 % of control and 104 % of control, the T/C (dose: 200.0 mg/kg/injection, schedule: Q04DX003 (ip), vehicle: saline) was 93 % of control and the T/C (dose: 265.0 mg/kg/injection, schedule: Q01DX001 (ip), vehicle: saline) was 107 % of control. For the same molecule, the T/C (dose: 265.0 mg/kg/injection, schedule: Q04DX002 (ip), vehicle: saline) was 102 % of control, the T/C (dose: 300.0 mg/kg/injection, schedule: Q04DX003 (ip), vehicle: saline) was 102 % of control and the T/C [17] was 96 % of control. For the same molecule, the T/C (dose: 400.0 mg/kg/injection, schedule: Q04DX002 (ip), vehicle: saline) was 96 % of control, the T/C (dose: 600.0 mg/kg/injection, schedule: Q01DX001 (ip), vehicle: saline) was 102 % of control and the T/C (dose: 600.0 mg/kg/injection, schedule: Q04DX002 (ip), vehicle: saline) was 106 % of control.
In the case of `COc1ccc([N+](=O)[O-])c2conc12`, the T/C [18] is reported as 95 % of control, the T/C [4] is reported as 98 % of control and the T/C [5] is reported as 103 % of control.
With `CCOP(=S)(OCC)OCCN(CC)CC` the T/C [9] was 101 % of control, the T/C [10] was 105 % of control and the T/C [11] was 105 % of control.
